According to patent publication EP4741383A1, “COMPOUND AND USE THEREOF AS ANTI-CANCER DRUG” (Tyligand Bioscience (Shanghai) Limited, priority 2023, dated 2025):

Target: T1, CYP2D6 (Homo sapiens, UniProt P10635)
T1 construct: tissue Corning or Xenotech; host or cells: human liver microsomes
Test: CYP450 inhibition in human liver microsomes, CYP2D6
Type: in vitro ADME
Details: pH 7.4, read-out: % CYP inhibition @ 10 µM 2D6
Description: According to standard methods in the field for the study of cytochrome P450 enzyme systems, such as the method described in Kerns, Edward H. and Di Li et al., Drug-like Properties: Concepts, Structure Design and Methods: from ADME to Toxicity Optimization (2008), San Diego, Academic Press, and Lin, Tong et al., In Vitro Assessment of Cytochrome P450 Inhibition: Strategies for Increasing LC/MS-Based Assay Throughput Using a One-Point IC50 Method and Multiplexing High-Performance Liquid Chromatography (J. Pharm. Sci. 2007, 96 (9), 2485). The inhibitory effect of the disclosed compounds on the cytochrome P450 enzyme system was similarly examined below.
Human liver microsomes were purchased from Corning or Xenotech. The test compounds were evaluated by detecting the metabolism of substrates for different Cyp450 isoforms by human liver microsomes.
0.1 M potassium phosphate buffer (K-buffer, pH 7.4) was pre-warmed.
100 mM K-buffer was prepared by mixing 9.5 mL of stock solution A (1 M potassium dihydrogen phosphate, prepared by dissolving 136.5 g of potassium dihydrogen phosphate in 1 L of Milli-Q water) with 40.5 mL of stock solution B (1 M potassium hydrogen phosphate, prepared by dissolving 174.2 g of potassium hydrogen phosphate in 1 L of Milli-Q water). The total volume was adjusted to 500 mL with Milli-Q water, and the buffer was titrated to pH 7.4 using KOH or H3PO4.
Test compound solution and specific inhibitor solution (400× dilution) were prepared in a 96-well plate. For the test compound, 8 µL of 10 mM test compound was transferred into 12 µL of ACN. For specific inhibitors of CYP1A2, CYP2C9, and CYP2D6: 12 µL of 1 mM α-naphthoflavone, 10 µL of 40 mM sulfaphenazole, 10 µL of 10 mM quinidine, and 8 µL of DMSO were mixed. For specific inhibitors of CYP3A4, CYP2B6, CYP2C8, and CYP2C19: 8 µL of DMSO stock solution was added to 12 µL of ACN.
A 4× diluted NADPH solution was prepared by dissolving 66.7 mg of NADPH in 10 mL of 0.1 M K-buffer (pH 7.4). […]

T1 sequence (P10635 whole entry): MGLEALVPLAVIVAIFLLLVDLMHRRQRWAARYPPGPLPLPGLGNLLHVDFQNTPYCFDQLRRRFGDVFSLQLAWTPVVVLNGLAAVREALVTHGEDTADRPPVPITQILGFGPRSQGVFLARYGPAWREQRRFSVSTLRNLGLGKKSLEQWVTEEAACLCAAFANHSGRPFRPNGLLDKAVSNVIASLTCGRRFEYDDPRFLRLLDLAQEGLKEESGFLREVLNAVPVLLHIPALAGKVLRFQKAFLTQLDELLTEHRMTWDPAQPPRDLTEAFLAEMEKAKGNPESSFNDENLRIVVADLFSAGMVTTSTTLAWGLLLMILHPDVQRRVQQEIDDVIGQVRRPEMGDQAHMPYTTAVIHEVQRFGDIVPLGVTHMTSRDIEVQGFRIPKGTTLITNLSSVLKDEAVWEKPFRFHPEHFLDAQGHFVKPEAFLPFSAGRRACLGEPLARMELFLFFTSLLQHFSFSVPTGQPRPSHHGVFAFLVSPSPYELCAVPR

inhibition at 10 min, 10 µM [%]	Structure (SMILES)
-5.43	O=C(Nc1ccc(-c2cc3cc(F)c(-c4nnn[nH]4)cc3n2C2CCC2)cc1)C(=O)Nc1ccc(N2CCC(CO)CC2)cc1 [Example 23]
-12.6	O=C(Nc1ccc(-c2cc3cc(F)c(-c4nnn[nH]4)cc3n2C2CCC2)cc1)C(=O)Nc1ccc(N2CCC3(CCOC3)CC2)cc1 [Example 67]
-4.07	CC1(n2c(-c3ccc(NC(=O)C(=O)Nc4ccc(N5CCC6(CCOC6)CC5)cc4)cc3)cc3cc(F)c(-c4nnn[nH]4)cc32)CCC1 [Example 68]
